Source: patent publication US10556936B2, “Immunogenic proteins and fragments thereof from allergenic mites” (ALK-ABELLÓ A/S, priority 2016, dated 2020)

Tested on: HDM-specific T cells expanded from PBMCs of HDM-allergic individuals
Experiment: T cell reactivity of peptides: IFN/IL-5 ELISPOT on in vitro expanded HDM-specific T cells
Type: cell-based, human
Details: for SFC/donor: individual peptides 10 μg/mL; for % responder: percentage of donors that produced a response against the peptide, 10 μg/mL
Procedure: Each sequence of an “L” cluster was aligned separately using the MEGA software tool with ClustalW. Fifteen-mer peptides overlapping by 10 amino acids were generated and the last 15-mer peptide was added when the sequence length was not divisible by 5, 14,783 unique peptides remained.
HLA class II binding predictions optimized for global coverage were performed for the seven class II alleles (HLA-DRB1*03:01, HLA-DRB1*07:01, HLA-DRB1*15:01, HLA-DRB3*01:01, HLA-DRB3*02:02, HLA-DRB4*01:01 and HLA-DRB5*01:01) using the standalone version of the IEDB class II binding prediction tool. The median consensus percentile rank was estimated from the consensus percentile ranks for the seven alleles. Further, peptides with more than ten overlapping amino acids, which appeared because several occurrences of some sequence regions were repeated multiple times in the same sequence, were eliminated (e.g. “[…]” was repeated seven times in one sequence.) Variant peptides were also removed, retaining the better peptide based on the median consensus percentile rank and conservation among the sequences within its respective cluster. Peptides with median consensus percentile rank ≤10.0 and conserved in ≥35% of sequences in the same cluster were finally selected, also including additional selected peptides chosen to maximize DRB1 allele coverage, for a grand total of 2,589 peptides.
Peptides were purchased from Mimotopes (Clayton, Victoria, Australia) or A and A (San Diego, Calif.) as crude material on a small (1-mg) scale. Individual peptides were resuspended in DMSO at a final concentration of 40 mg/mL. Peptide “megapools” of 30-65 peptides/pool were generated. Following lyophilization, each pool was reconstituted in DMSO so that each peptide was present at a concentration of 4 mg/mL. To facilitate deconvolution of positive megapools, each megapool was further broken down in 2-6 “mesopools” (259 mesopools in total), each containing 8-14 peptides. Each mesopool was then deconvoluted to identify individual positive peptides. To avoid dimerization and polymerization of peptides by intra- and intermolecular disulfide bond formation between cysteine residues, this amino acid were in some instances substituted by a serine residue in the peptides. Such peptides are herein marked with an asterisk (*).
PBMCs from European HDM-allergic individuals were recruited in the Copenhagen region (defined by clinical history of allergy to house dust mite and specific IgE to group 1 and group 2 major allergens from Der p and/or Der f and with measured specific IgE (CAP) >0.7 kU/L towards Der p/f 1 or Der p/f 2. In addition, PBMCs from 10 US HDM-allergic individuals were recruited in San Diego (defined by Der p extract IgE titers greater than 0.35 kUA/L). PBMCs were isolated from whole blood by density gradient centrifugation according to manufacturers' instructions (Ficoll-Hypaque, Amersham Biosciences, Uppsala, Sweden). Der p- and Der f-specific extract IgE titers were determined using the ImmunoCAP system (Thermo Fisher, Uppsala, Sweden). In a separate series of experiments, pooled plasma from 10 European and 10 American HDM atopic individuals from the San Diego region, respectively, was utilized to run 2D immunoblots to elucidate IgE and IgG reactivity towards the proteins, which had at least one peptide with positive T cell response.
HDM-specific T cells were expanded in vitro. Briefly, PBMCs from HDM-allergic individuals were stimulated with HDM extract (5 μg/mL) and expanded over 14-17 days with IL-2 (added every 3 days). Cells were harvested on day 14, restimulated with HDM extract (5 μg/mL), individual peptides (10 μg/mL) or peptide pools (5 μg/mL) and screened for […]/IL-5-production by ELISPOT. Criteria for positivity were 100 or 20 spot forming cells (SFCs) per 10^6 PBMCs for peptide pools or single peptides, respectively, p<0.05, and a stimulation index >2.

Row | Substance | SFC/donor [SFC/donor] | % responder [%]
1 | 94 (FTNLNTTYTRNRAVG; Immunogenic fragment) [compound 94] | 94 | 15
2 | 95 (TTYTRNRAVGIPMDV; Immunogenic fragment) [compound 95] | 77 | 15
3 | 96 (LPDFIRNVLHKNGQK; Immunogenic fragment) [compound 96] | 5 | 10
4 | 97 (NATEYWMDMFAEYHK; Immunogenic fragment) [compound 97] | 227 | 25
5 | 98 (WMDMFAEYHKTIAFD; Immunogenic fragment) [compound 98] | 8 | 5
6 | 99 (AEYHKTIAFDGAWLD; Immunogenic fragment) [compound 99] | 24 | 15
7 | 100 (TLRHKTLCMTARHYN; Immunogenic fragment) [compound 100] | 12 | 10
8 | 101 (RHYNDQLHYNLHNLY; Immunogenic fragment) [compound 101] | 10 | 5
9 | 102 (QLHYNLHNLYGFQEA; Immunogenic fragment) [compound 102] | 14 | 10
10 | 103 (QLHYNLHNLYSLSMA; Immunogenic fragment) [compound 103] | 69 | 5
11 | 104 (LHNLYSLSMAMATNA; Immunogenic fragment) [compound 104] | 29 | 10
12 | 105 (SLSMAMATNAALTKL; Immunogenic fragment) [compound 105] | 9 | 5
13 | 106 (AALTKLNKRPFIISR; Immunogenic fragment) [compound 106] | 14 | 10
14 | 107 (NEALKTTLNKRPFII; Immunogenic fragment) [compound 107] | 9 | 5
15 | 108 (NKRPFIISRATAPGH; Immunogenic fragment) [compound 108] | 146 | 5
16 | 109 (HWNGDILSDWSSMRW; Immunogenic fragment) [compound 109] | 88 | 25
17 | 110 (ILSDWSSMRWTIPSI; Immunogenic fragment) [compound 110] | 36 | 30
18 | 111 (SSMRWTIPSILNFNM; Immunogenic fragment) [compound 111] | 19 | 10
19 | 112 (PSILNFNLFGVPMIG; Immunogenic fragment) [compound 112] | 4 | 5
20 | 113 (LCIRWYQLGAFYSFA; Immunogenic fragment) [compound 113] | 40 | 15
21 | 114 (YQLGAFYSFARNHND; Immunogenic fragment) [compound 114] | 35 | 15
22 | 115 (AFYSFVRNHNTDNAI; Immunogenic fragment) [compound 115] | 15 | 20
23 | 116 (LGESVIRAARSSLQY; Immunogenic fragment) [compound 116] | 30 | 15
24 | 117 (IRAARSSLQYRYRFL; Immunogenic fragment) [compound 117] | 20 | 20
25 | 118 (SSLQYRYRFLAHLYT; Immunogenic fragment) [compound 118] | 37 | 20

Row | Substance | SFC/donor [SFC/donor] | % responder [%]
26 | 119 (RYRFLAHLYTLFYHV; Immunogenic fragment) [compound 119] | 158 | 10
27 | 120 (AHLYTLFYHVHKNGG; Immunogenic fragment) [compound 120] | 8 | 5
28 | 121 (DIETQFMWGDSMLIA; Immunogenic fragment) [compound 121] | 8 | 5
29 | 122 (FMWGDSMLIAPILYP; Immunogenic fragment) [compound 122] | 2 | 5
30 | 123 (YDDIDYVFVRGGSII; Immunogenic fragment) [compound 123] | 149 | 30
31 | 124 (DINYVFFRSGSIIPI; Immunogenic fragment) [compound 124] | 20 | 10
32 | 125 (FFRSGSIIPIQGPQN; Immunogenic fragment) [compound 125] | 5 | 5
33 | 126 (TQNINFINILGVPKL; Immunogenic fragment) [compound 126] | 72 | 15
34 | 127 (SQHLGYQTNQSIIIL; Immunogenic fragment) [compound 127] | 7 | 10
35 | 128 (YQTNQSIIILEILGI; Immunogenic fragment) [compound 128] | 10 | 10
36 | 129 (INILGVPKLPTSFKL; Immunogenic fragment) [compound 129] | 24 | 20
37 | 130 (SIIFDGKPYYQFIYT; Immunogenic fragment) [compound 130] | 55 | 5
38 | 131 (PRIIRFNYDEQTNIL; Immunogenic fragment) [compound 131] | 160 | 25
39 | 132 (GKPYYQFIYTTNNML; Immunogenic fragment) [compound 132] | 44 | 15
40 | 133 (QFIYTTNNMLIIQTK; Immunogenic fragment) [compound 133] | 47 | 5
41 | 134 (TNNMLIIQTKLSIFN; Immunogenic fragment) [compound 134] | 4 | 5
42 | 135 (IIQTKLSIFNDNDKS; Immunogenic fragment) [compound 135] | 3 | 5
43 | 136 (DKSKKIHYQFEWKFN; Immunogenic fragment) [compound 136] | 2 | 5
44 | 137 (HDNTELMKTKDFLLI; Immunogenic fragment) [compound 137] | 41 | 10
45 | 138 (YHNLIGLPAMPPFWS; Immunogenic fragment) [compound 138] | 3 | 5
46 | 139 (ELNFKVYEDAAALAK; Immunogenic fragment) [compound 139] | 16 | 10
47 | 140 (EDGLIYNIASREKAD; Immunogenic fragment) [compound 140] | 55 | 5
48 | 141 (KHEIFVVADLIDRKS; Immunogenic fragment) [compound 141] | 7 | 5
49 | 142 (DKKFLFNTAVLFDRQ; Immunogenic fragment) [compound 142] | 22 | 10
50 | 143 (FNTAVLFDRQGKLLG; Immunogenic fragment) [compound 143] | 11 | 10
